Data as given in PubChem BioAssay AID248 (DTP/NCI, 2004).
Several values for one entry are separate records, joined by “and”; a condition that tells them apart may be missing. Equal values may be shown once. Inconclusive results and toxic doses are left out. Rule as the data show it: active = T/C of 150% or more; inactive = T/C below 125%.

Tested on: L1210 leukemia ip in BDF1 mice, survival T/C
Test: NCI In Vivo Anticancer Drug Screen. Data for tumor model L1210 Leukemia (intraperitoneal) in B6D2F1 (BDF1) mice
Settings: endpoint: mean survival time, higher = longer survival
Summary of the method: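 Tumor cells were implanted, animals were treated, and survival was followed. The result divides the treated measurement by the vehicle-control measurement.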

[1] = dose: 100.0 mg/kg/injection, schedule: Q04DX003 (ip), vehicle: saline with Tween-80
[2] = dose: 200.0 mg/kg/injection, schedule: Q04DX003 (ip), vehicle: saline with Tween-80
[3] = dose: 400.0 mg/kg/injection, schedule: Q04DX003 (ip), vehicle: saline with Tween-80
[4] = dose: 100.0 mg/kg/injection, schedule: Q01DX001 (ip), vehicle: saline
[5] = dose: 50.0 mg/kg/injection, schedule: Q01DX001 (ip), vehicle: saline
[6] = dose: 200.0 mg/kg/injection, schedule: Q01DX001 (ip), vehicle: saline
[7] = dose: 400.0 mg/kg/injection, schedule: Q01DX001 (ip), vehicle: saline
[8] = dose: 100.0 mg/kg/injection, schedule: Q01DX009 (ip), vehicle: saline with Tween-80
[9] = dose: 100.0 mg/kg/injection, schedule: Q04DX003 (ip), vehicle: Klucel (hydroxypropylcellulose) (HPC)
[10] = dose: 200.0 mg/kg/injection, schedule: Q04DX003 (ip), vehicle: Klucel (hydroxypropylcellulose) (HPC)
[11] = dose: 400.0 mg/kg/injection, schedule: Q04DX003 (ip), vehicle: Klucel (hydroxypropylcellulose) (HPC)
[12] = dose: 200.0 mg/kg/injection, schedule: Q01DX009 (ip), vehicle: saline with Tween-80
[13] = dose: 400.0 mg/kg/injection, schedule: Q01DX009 (ip), vehicle: saline with Tween-80
[14] = dose: 100.0 mg/kg/injection, schedule: Q01DX001 (ip), vehicle: carboxymethylcellulose (CMC)
[15] = dose: 200.0 mg/kg/injection, schedule: Q01DX001 (ip), vehicle: carboxymethylcellulose (CMC)

Measured: T/C

CCOC(=O)C1C(O)=C(c2ccccc2)P(=O)(Cc2ccccc2)C1(C)C (configuration not stated)
inactive: [1] 94 % of control | [2] 94 % of control | [3] 91 % of control

CC(C)(C)C(=O)OCN1CCOCC1
inactive: dose: 75.0 mg/kg/injection, schedule: Q01DX001 (ip), vehicle: saline 106 % of control | dose: 150.0 mg/kg/injection, schedule: Q01DX001 (ip), vehicle: saline 103 % of control | dose: 300.0 mg/kg/injection, schedule: Q01DX001 (ip), vehicle: saline 108 % of control

CCOc1ccc(C(=O)C(C)CN2CCN(C)CC2)cc1 (configuration not stated)
inactive: [4] 98 % of control

Cc1cc2c(cc1C)NC(C)CC(=O)N2 (configuration not stated)
inactive: dose: 25.0 mg/kg/injection, schedule: Q01DX009 (ip), vehicle: Klucel (hydroxypropylcellulose) (HPC) 109 % of control | dose: 50.0 mg/kg/injection, schedule: Q01DX009 (ip), vehicle: Klucel (hydroxypropylcellulose) (HPC) 98 % of control | dose: 100.0 mg/kg/injection, schedule: Q01DX009 (ip), vehicle: Klucel (hydroxypropylcellulose) (HPC) 104 % of control | dose: 100.0 mg/kg/injection, schedule: Q01DX009 (ip), vehicle: saline 111 % of control | dose: 100.0 mg/kg/injection, schedule: Q04DX003 (ip), vehicle: saline 96 % of control | dose: 133.0 mg/kg/injection, schedule: Q01DX009 (ip), vehicle: Klucel (hydroxypropylcellulose) (HPC) 99 % of control | dose: 200.0 mg/kg/injection, schedule: Q01DX009 (ip), vehicle: Klucel (hydroxypropylcellulose) (HPC) 94 % of control and 124 % of control | dose: 200.0 mg/kg/injection, schedule: Q04DX003 (ip), vehicle: saline 108 % of control | dose: 400.0 mg/kg/injection, schedule: Q04DX003 (ip), vehicle: saline 105 % of control

O=C1C=CC(=O)C1
inactive: dose: 2.25 mg/kg/injection, schedule: Q01DX009 (ip), vehicle: saline 111 % of control | dose: 2.25 mg/kg/injection, schedule: Q04DX003 (ip), vehicle: saline 97 % of control | dose: 4.5 mg/kg/injection, schedule: Q01DX009 (ip), vehicle: saline 106 % of control | dose: 4.5 mg/kg/injection, schedule: Q04DX003 (ip), vehicle: saline 98 % of control | dose: 9.0 mg/kg/injection, schedule: Q04DX003 (ip), vehicle: saline 96 % of control

C(=N/Nc1ccccn1)/c1cccnc1
inactive: dose: 100.0 mg/kg/injection, schedule: Q01DX001 (ip), vehicle: saline with Tween-80 112 % of control

CC1(C)OC2C(C(=O)O)OC(n3cnc4c(N)ncnc43)C2O1 (configuration not stated)
inactive: dose: 100.0 mg/kg/injection, schedule: Q01DX005 (ip), vehicle: saline 102 % of control | dose: 200.0 mg/kg/injection, schedule: Q01DX005 (ip), vehicle: saline 104 % of control

COc1cc(Cn2cccc2/C=N/NC(N)=S)c([N+](=O)[O-])cc1OC
inactive: dose: 25.0 mg/kg/injection, schedule: Q04DX002 (ip), vehicle: Klucel (hydroxypropylcellulose) (HPC) 100 % of control | dose: 50.0 mg/kg/injection, schedule: Q04DX002 (ip), vehicle: Klucel (hydroxypropylcellulose) (HPC) 104 % of control | dose: 100.0 mg/kg/injection, schedule: Q04DX002 (ip), vehicle: Klucel (hydroxypropylcellulose) (HPC) 93 % of control

C=CCOCC(O)COP(=O)(O)O (configuration not stated) (tested in a mixture with another compound)
inactive: [5] 111 % of control and 107 % of control and 97 % of control | [4] 100 % of control and 107 % of control and 103 % of control | [6] 100 % of control and 97 % of control and 103 % of control | [7] 94 % of control and 103 % of control

c1ccc(-n2nc3c(c2OCCN2CCCC2)CCCc2ccccc2-3)cc1
inactive: [8] 104 % of control

Oc1c(Br)cc(C(c2cc(Br)c(O)c(Br)c2)c2ccccn2)cc1Br
inactive: [9] 104 % of control | [10] 100 % of control | [11] 104 % of control

CCCCCCCCC(=O)NCc1cccc(OC)c1
inactive: [9] 95 % of control | [10] 95 % of control | [11] 105 % of control

CCO/C=C(\C#N)C(=O)O
inactive: [8] 95 % of control | [1] 98 % of control | [12] 98 % of control | [2] 104 % of control | [13] 102 % of control | [3] 100 % of control

O=C(CBr)NCCCCc1ccc(C(=O)O)cc1
inactive: dose: 10.0 mg/kg/injection, schedule: Q01DX001 (ip), vehicle: carboxymethylcellulose (CMC) 92 % of control | dose: 20.0 mg/kg/injection, schedule: Q01DX001 (ip), vehicle: carboxymethylcellulose (CMC) 100 % of control | dose: 40.0 mg/kg/injection, schedule: Q01DX001 (ip), vehicle: carboxymethylcellulose (CMC) 103 % of control

CCCCCCCCCCCCCCCCS(=O)(=O)c1ccc(S(=O)(=O)F)cc1NC(C)=O
inactive: [9] 91 % of control | dose: 200.0 mg/kg/injection, schedule: Q01DX009 (ip), vehicle: saline sonified 93 % of control | [10] 94 % of control | [11] 91 % of control

CC1CCC=C2C(=O)C3OC(C)(C)C(C3O)C21C (configuration not stated)
inactive: [8] 96 % of control | [1] 97 % of control | [12] 91 % of control | [2] 103 % of control | [13] 93 % of control | [3] 90 % of control

CSCCc1ccccn1
inactive: [5] 98 % of control | [4] 104 % of control | [6] 98 % of control | [7] 110 % of control

COc1ccc(-n2c(O)c(N=Nc3ccccc3C)c(=O)n(-c3ccccc3)c2=S)cc1
inactive: dose: 37.5 mg/kg/injection, schedule: Q01DX001 (ip), vehicle: Klucel (hydroxypropylcellulose) (HPC) 103 % of control | dose: 75.0 mg/kg/injection, schedule: Q01DX001 (ip), vehicle: Klucel (hydroxypropylcellulose) (HPC) 97 % of control | dose: 150.0 mg/kg/injection, schedule: Q01DX001 (ip), vehicle: Klucel (hydroxypropylcellulose) (HPC) 94 % of control

OC1CCOC1 (configuration not stated)
inactive: [8] 98 % of control | [12] 97 % of control | [13] 98 % of control

O=C(N=C1C=CC(=NC(=O)c2ccccc2)C=C1)c1ccccc1
inactive: dose: 75.0 mg/kg/injection, schedule: Q04DX003 (ip), vehicle: Klucel (hydroxypropylcellulose) (HPC) 87 % of control | dose: 150.0 mg/kg/injection, schedule: Q04DX003 (ip), vehicle: Klucel (hydroxypropylcellulose) (HPC) 92 % of control | dose: 300.0 mg/kg/injection, schedule: Q04DX003 (ip), vehicle: Klucel (hydroxypropylcellulose) (HPC) 87 % of control

CSc1ncnc2c1ncn2/N=C/c1ccccc1
inactive: [14] 96 % of control | [15] 95 % of control | dose: 400.0 mg/kg/injection, schedule: Q01DX001 (ip), vehicle: carboxymethylcellulose (CMC) 96 % of control

CCOC(C[N+](C)(C)CCC[N+](C)(C)CC(OCC)OCC)OCC
inactive: [4] 111 % of control | [6] 96 % of control | [7] 111 % of control

CC(C)CC(=O)OCc1ccc2c(c1)OCO2
inactive: dose: 222.0 mg/kg/injection, schedule: Q01DX Z (ip), vehicle: saline 109 % of control | dose: 333.0 mg/kg/injection, schedule: Q01DX Z (ip), vehicle: saline 102 % of control | dose: 500.0 mg/kg/injection, schedule: Q01DX Z (ip), vehicle: saline 108 % of control

CCCCCCCCN1N=CC(CC)C1CCC (configuration not stated)
inactive: dose: 50.0 mg/kg/injection, schedule: Q01DX001 (ip), vehicle: carboxymethylcellulose (CMC) 105 % of control | [14] 88 % of control | [15] 92 % of control
